For assay [1], the system named is RIPK1 (Receptor-interacting serine/threonine-protein kinase 1). As to the kind of experiment: TEAR1 target engagement immunoassay in monkey whole blood and tissues after IV dosing. Also noted: species or system Macaca fascicularis.
The target of assay [2] is T1, RIPK1 (Receptor-interacting serine/threonine-protein kinase 1) (Homo sapiens, UniProt Q13546).
T1 sequence (Q13546 1-671): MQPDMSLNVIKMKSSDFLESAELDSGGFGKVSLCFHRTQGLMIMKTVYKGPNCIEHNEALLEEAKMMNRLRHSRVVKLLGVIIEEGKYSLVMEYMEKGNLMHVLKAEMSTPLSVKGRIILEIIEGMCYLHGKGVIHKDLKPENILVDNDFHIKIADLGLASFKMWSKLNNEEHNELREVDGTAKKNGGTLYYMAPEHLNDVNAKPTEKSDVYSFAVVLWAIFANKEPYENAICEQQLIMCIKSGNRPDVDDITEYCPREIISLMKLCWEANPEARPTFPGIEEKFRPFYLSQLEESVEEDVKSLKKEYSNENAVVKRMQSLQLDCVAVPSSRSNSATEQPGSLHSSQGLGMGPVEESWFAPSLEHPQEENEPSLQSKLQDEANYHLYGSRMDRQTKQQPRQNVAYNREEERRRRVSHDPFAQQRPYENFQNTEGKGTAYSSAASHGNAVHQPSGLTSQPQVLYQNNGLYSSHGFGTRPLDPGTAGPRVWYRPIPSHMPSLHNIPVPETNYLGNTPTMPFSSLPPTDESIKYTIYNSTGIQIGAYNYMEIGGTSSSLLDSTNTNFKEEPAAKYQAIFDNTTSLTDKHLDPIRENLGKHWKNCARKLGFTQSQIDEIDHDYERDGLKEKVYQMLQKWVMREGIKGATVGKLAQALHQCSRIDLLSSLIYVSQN
Put plainly: TEAR1 target engagement immunoassay (FREE-RIPK1/TOTAL-RIPK1) in HT29 cells. Format: cell-based.

The term IC50 denotes the concentration at which inhibition is half-maximal. GSK3011253 [GSK'253]: the results for the half-maximal inhibitory concentration (IC50) in assay [1] and in assay [2] were 3.1 ng/mL and 0.5 nM, respectively.

For the origin of these results see PMC5723705, “Identification of an antibody‐based immunoassay for measuring direct target binding of RIPK1 inhibitors in cells and tissues” (Pharmacology Research & Perspectives, 2017).
